Measurements: PMC4737580 (Bioorganic & medicinal chemistry letters, 2010)

Tests used:
furin = furin (Homo sapiens, UniProt P09958); assay: Furin inhibition, Ki from Dixon plots; type: biochemical
[1] = general statement, no reference given; cited from earlier work

Sequence of furin (P09958 108-794): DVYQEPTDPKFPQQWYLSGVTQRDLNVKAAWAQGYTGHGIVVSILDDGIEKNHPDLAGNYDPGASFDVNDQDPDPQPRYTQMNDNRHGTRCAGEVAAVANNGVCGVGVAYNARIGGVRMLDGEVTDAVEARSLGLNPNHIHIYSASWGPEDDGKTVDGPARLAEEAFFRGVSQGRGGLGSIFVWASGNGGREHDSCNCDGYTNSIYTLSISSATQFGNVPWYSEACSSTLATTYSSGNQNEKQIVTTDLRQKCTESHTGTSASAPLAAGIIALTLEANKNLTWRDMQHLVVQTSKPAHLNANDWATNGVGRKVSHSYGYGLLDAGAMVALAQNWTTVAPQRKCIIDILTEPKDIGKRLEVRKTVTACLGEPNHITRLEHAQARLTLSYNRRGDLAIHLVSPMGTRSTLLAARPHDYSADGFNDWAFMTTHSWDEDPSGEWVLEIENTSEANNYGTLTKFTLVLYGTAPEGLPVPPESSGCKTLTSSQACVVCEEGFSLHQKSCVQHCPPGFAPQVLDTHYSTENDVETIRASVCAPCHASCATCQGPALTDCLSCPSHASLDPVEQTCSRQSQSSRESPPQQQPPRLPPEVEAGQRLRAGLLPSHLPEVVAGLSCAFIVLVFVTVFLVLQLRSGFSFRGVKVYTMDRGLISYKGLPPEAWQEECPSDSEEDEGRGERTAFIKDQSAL

N=C(N)N/N=C/c1ccccc1OCc1ccc(Cl)cc1 [Compound 2]
Ki (furin; Ki, Ki values from Dixon plots): 25 µM

C/C(=N\NC(=N)N)c1cc(NC(=O)CCCNC(=N)N)cc(/C(C)=N/NC(=N)N)c1 [Compound 17]
fold improved Ki compared to 1 (furin; relative to compound 1): approximately 4 fold

N=C(N)N [guanidine]
pKa [1]: approximately 13
